Results from PMC9220410, “Antiamoebic Properties of Laboratory and Clinically Used Drugs against Naegleria fowleri and Balamuthia mandrillaris” (Antibiotics, 2022).
Where two headings read alike, the source gives them in different places.

What was measured:
N. fowleri trophozoites = assay: Amoebicidal assay against N. fowleri trophozoites (Trypan blue); type: cell-based, Naegleria fowleri; details: for minimal effective concentration / EC50: Naegleria fowleri; for minimal effective concentration: compared to solvent control, p < 0.05, 24 h, read-out: Lowest concentration showing significant amoebicidal activity against N. fowleri; for EC50: 24 h, read-out: Half maximal effective concentration (EC50), N. fowleri; for Amoebicidal activity against N. fowleri: summary in discussion, concentration not given
Description: (§1) Amoebicidal assays were performed as previously described. Briefly, 5 × 10^5 amoebae (N. fowleri and B. mandrillaris cells) were incubated with drugs and/or solvents in 24-well plates in RPMI-1640. Amoebae were incubated with RPMI-1640 for negative controls while DMSO and ethanol were used as solvent control. For the positive control, the anti-amoebic drug, 100 μM miltefosine was used. Plates were incubated at 37 °C and 5% CO2 for 24 h. Next, 0.1% Trypan blue was added to each well. […] The number of live cells (i.e., unstained) was counted using a haemocytometer to determine amoebicidal effects of various compounds. The data are representative of the mean ± standard error of several experiments performed in duplicate.
(§2) Figure 1 The amoebicidal activities of compounds against N. fowleri trophozoites. N. fowleri trophozoites were incubated with various concentrations of compounds for 24 h and trophozoites viability was determined using Trypan blue. Percentage amoebicidal activity was calculated by: [((RPMI cell count − cell count for sample)/RPMI cell count) × 100)]. The activities of solvents alone were negated from the activities of the compounds. The data is presented as the mean ± standard error (*: p < 0.05, **: p < 0.01, ***: p < 0.001 using student t-test; two tailed distribution).

[1] = test system: B. mandrillaris trophozoites; assay: Amoebicidal assay against B. mandrillaris trophozoites (Trypan blue); type: cell-based, Balamuthia mandrillaris; details: for EC50: Balamuthia mandrillaris, 24 h, read-out: Half maximal effective concentration (EC50), B. mandrillaris; for Amoebicidal activity against B. mandrillaris: summary in discussion, concentration not given
Description: as §1
as §2, with “Figure 2” for “Figure 1”, “against B. mandrillaris” for “against N. fowleri”, “trophozoites. B. mandrillaris” for “trophozoites. N. fowleri”

N. fowleri cysts = assay: Excystation assay, N. fowleri cysts; type: cell-based, Naegleria fowleri; details: 100 μM, after negating effects of solvent alone; for inhibition at 100 µM: Naegleria fowleri, read-out: Inhibition of excystation of N. fowleri
Description: (§3) Briefly, 5 × 10^5 amoebae cysts (N. fowleri and B. mandrillaris cells) were incubated with 100 μM drugs and/or solvent in 24-well plates containing RPMI-1640 on HeLa monolayers at 37 °C and 5% CO2 until around 75% of the cysts in RPMI-1640 alone have excysted. The RPMI-1640 alone was used as a negative control while DMSO and ethanol were used as a solvent control and 100 μM miltefosine was used as positive control. Live trophozoites (amoebae that excysted) were then quantified by counting live (unstained) cells, after addition of 0.1% Trypan blue to each well, using a haemocytometer. Percentage inhibition is defined as: [(Number of trophozoites in untreated well − Number of trophozoites in treated well)/Number of trophozoites in untreated well)] × 100. The data are representative of the mean ± standard error of several independent experiments performed in duplicate.
(§4) Figure 3 (A) Inhibition of excystation of N. fowleri cysts. N. fowleri cysts were incubated with 100 μM drugs and/or solvent in 24-well plates containing RPMI-1640 on HeLa monolayers for 24 h and number of viable trophozoites were then enumerated. Percentage inhibition of excystation was calculated by: [((RPMI trophozoite cell count − trophozoite cell count for sample)/RPMI trophozoite cell count) × 100)]. The activities of solvents alone were negated from the activities of the compounds. The data is presented as the mean ± standard error (*: p ˂ 0.05, **: p < 0.01, ***: p < 0.001 using student t-test; two tailed distribution). (B) Inhibition of excystation of B. mandrillaris cysts. B. mandrillaris cysts were incubated with 100 μM drugs and/or solvent in 24-well plates containing RPMI-1640 on HeLa monolayers for 24 h and number of viable trophozoites were then enumerated. Percentage inhibition of excystation was calculated by: [((RPMI trophozoite cell count − trophozoite cell count for sample)/RPMI trophozoite cell count) × 100)]. The activities of solvents alone were negated from the activities of the compounds. The data is presented as the mean ± standard error (*: p ˂ 0.05, **: p < 0.01, ***: p < 0.001 using student t-test; two tailed distribution).

B. mandrillaris cysts = assay: Excystation assay, B. mandrillaris cysts; type: cell-based; details: Balamuthia mandrillaris; 100 μM, after negating effects of solvent alone; read-out: Inhibition of excystation of B. mandrillaris
Description: as §3, §4

HaCaT cells = type: cell-based, human; details: LDH release, 24 h, concentration not given
Description: Cytotoxic effects of the drugs were determined as previously described^21. Briefly, the cytotoxic activity of the drugs was investigated against HaCaT cells. […] The LDH assay protocol is based on an enzymatic reaction, i.e., LDH released from the cell oxidizes lactate to generate NADH, which then reacts with water-soluble tetrazolium salt (WST) to generate a yellow color. The intensity of the generated color correlates directly with the number of lyzed cells. Following this, 1% Triton X-100 was added to the positive control well and incubated the plate for 60 min at 37 °C. For negative control, human cells were grown in RPMI alone well. Then, an equal amount of cells supernatant (comprising LDH enzyme) from each well was combined with equal amount of LDH kit reagents and cytotoxicity was determined in proportion to LDH released from human cells using a spectrophotometer at 490 nm. The percentage LDH released was determined as follows: [(Absorbance of sample − Absorbance of control)/(Absorbance for total LDH release − Absorbance of control)] × 100 = percentage cytotoxicity.
Figure 4 Cytotoxic effects of compounds against human cells are depicted. Various concentrations of compounds were incubated with human cells for 24 h at 37 °C and 5% CO2. RPMI alone was used as negative control and triton X-100 was used as positive control. Data are presented as the mean ± standard error of 2 experiments conducted in duplicates.

[2] = set-up: method as in PMID 29206032, PMID 32548431; details: ref [24],[25],[26]; cited from earlier work

Row | SMILES | minimal effective concentration (N. fowleri trophozoites) [µM] | EC50 (N. fowleri trophozoites; trophozoites, Trypan blue) [µM] | Amoebicidal activity against N. fowleri (N. fowleri trophozoites) [%] | EC50 ([1]; trophozoites, Trypan blue) [µM] | Amoebicidal activity against B. mandrillaris [1] [%] | inhibition at 100 µM (N. fowleri cysts) [%] | inhibition at 100 µM (B. mandrillaris cysts) [%] | Cytotoxicity against HaCaT cells (HaCaT cells) | BBB Permeability [2] | Inhibition of excystation of N. fowleri (N. fowleri cysts) | EC50 (N. fowleri trophozoites) [µM] | EC50 [1] [µM]
1 | CCC1=C(C)CN(C(=O)NCCc2ccc(S(=O)(=O)NC(=O)NC3CCC(C)CC3)cc2)C1=O (stereo not drawn) [Glimepiride, 4-ethyl-3-methyl-N-[2-[4-[(4-methylcyclohexyl)carbamoylsulfamoyl]phenyl]ethyl]-5-oxo-2H-pyrrole-1-carboxamide] | 12.5 | 5.2 | 92 | 63.6 | 54 | 53 | < 10 | 6% | Positive | – | – | –
2 | N#C[C@@H]1CCCN1C(=O)CNC12CC3CC(CC(O)(C3)C1)C2 [Vildagliptin, (2S)-1-[2-[(3-hydroxy-1-adamantyl)amino]acetyl]pyrrolidine-2-carbonitrile] | ≥ 3.13 | 100 | – | – | – | – | 14 | did not exhibit any cytotoxicity | Positive | did not inhibit excystation | – | –
3 | CCOc1cc(CC(=O)N[C@@H](CC(C)C)c2ccccc2N2CCCCC2)ccc1C(=O)O [Repaglinide, 2-ethoxy-4-[2-[[(1S)-3-methyl-1-(2-piperidin-1-ylphenyl)butyl]amino]-2-oxoethyl]benzoic acid] | 50 | 14.3 | – | 31.8 | – | 49 | < 10 | did not exhibit any cytotoxicity | Negative | – | – | –
4 | CC(C)C1CCC(C(=O)N[C@H](Cc2ccccc2)C(=O)O)CC1 (stereo partly drawn) [Nateglinide, (2R)-3-phenyl-2-[(4-propan-2-ylcyclohexanecarbonyl)amino]propanoic acid] | ≥ 6.25 | 44.4 | 64 | 136 | 39 | 42 | 57 | 2% | Positive | – | – | –
5 | C[C@H]1O[C@H](O[C@H]2[C@H](O)[C@@H](O)[C@@H](O[C@H]3[C@H](O)[C@@H](O)C(O)O[C@@H]3CO)O[C@@H]2CO)[C@H](O)[C@@H](O)[C@@H]1N[C@H]1C=C(CO)[C@@H](O)[C@H](O)[C@H]1O (stereo partly drawn) [Acarbose, (3R,4R,5S,6R)-5-[(2R,3R,4R,5S,6R)-5-[(2R,3R,4S,5S,6R)-3,4-dihydroxy-6-methyl-5-[[(1S,4R,5S,6S)-4,5,6-trihydroxy-3-(hydroxymethyl)cyclohex-2-en-1-yl]amino]oxan-2-yl]oxy-3,4-dihydroxy-6-(hydroxymethyl)oxan-2-yl]oxy-6-(hydroxymethyl)oxane-2,3,4-triol] | ≥ 25 | – | 74 | – | 60 | 17 | < 10 | – | Negative | – | 3.6 | 80.8
